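Five compound concentrations were applied to cells in 96-well plates for 48 hours; endpoints were derived by simple linear interpolation of the resulting dose-response curve. GI50: concentration for 50% inhibition of growth. TGI marks complete inhibition of growth.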

Among the test systems are K-562 leukemia; OVCAR-5 ovarian; 786-0 renal; ACHN renal; HOP-92 NSCLC; KM20L2 colon; LOX IMVI melanoma; LXFL 529 NSCLC; M19-MEL melanoma; MDA-MB-435; SN12C renal; UO-31 renal.
Test in all cases: NCI anticancer screen, dose series, 48 h

Consider `COc1cc(/C=C2\CCCC3=C2NC(C)=NC3c2cc(OC)c(OC)c(OC)c2)cc(OC)c1OC` (stereo not drawn), for which, in the test with K-562 leukemia, the GI50 was 0.917 µM and the TGI was greater than 100 µM. In the test with OVCAR-5 ovarian, the GI50 was 3.54 µM and the TGI was greater than 100 µM.
Regarding `CCN(CC)CC(=O)O[C@]1(CC)C(=O)OCc2c1cc1n(c2=O)Cc2cc3ccccc3nc2-1`, the TGI in the test on 786-0 renal stood at 0.13 µM; in the test with ACHN renal it was 0.146 µM; with HOP-92 NSCLC, 2.12 µM; with K-562 leukemia, 38.3 µM; in the test with KM20L2 colon it was 0.887 µM; with LOX IMVI melanoma it was 0.177 µM. For the same compound, the TGI in the test on LXFL 529 NSCLC amounted to 3.3 µM; in the test with M19-MEL melanoma, 0.738 µM; in the test on MDA-MB-435, 0.862 µM; with OVCAR-5 ovarian, 1.43 µM; in the test with SN12C renal it was 1.8 µM; in the test with UO-31 renal, 0.182 µM.
On to `NC(N)=N/N=C/c1c(-c2cccc([N+](=O)[O-])c2)nc2n1CCS2`, for which the TGI in the test on 786-0 renal is greater than 100 µM; in the test with ACHN renal it was 44.2 µM; in the test on HOP-92 NSCLC, 39.7 µM; with K-562 leukemia, greater than 100 µM; with LOX IMVI melanoma it was 73.1 µM; with MDA-MB-435, 55.3 µM. Further, the figures for the TGI in the test with OVCAR-5 ovarian, in the test on SN12C renal and in the test on UO-31 renal were greater than 100 µM, 58.5 µM and 30.6 µM, respectively.
`O=C1CCCCC2N(C(c3ccccc3)c3ccccc3)CC[C@@]12c1ccccc1` (mixture of isomers): the TGI in the test on ACHN renal, with HOP-92 NSCLC, in the test with K-562 leukemia, in the test on KM20L2 colon, in the test on LOX IMVI melanoma and with M19-MEL melanoma was greater than 10 µM throughout. The TGI in the test on OVCAR-5 ovarian, in the test on SN12C renal and with UO-31 renal was greater than 10 µM throughout.
`CN(C)CCCN1c2ccccc2Sc2cnccc21`: the TGI in the test on 786-0 renal, with ACHN renal, in the test with HOP-92 NSCLC, in the test on K-562 leukemia, with LOX IMVI melanoma and in the test on MDA-MB-435 was greater than 100 µM throughout. Also, the TGI with OVCAR-5 ovarian, in the test with SN12C renal and with UO-31 renal was greater than 100 µM in each case.
In the case of `Cc1cc(O)c(C(C)(C)C)cc1Sc1cc(C(C)(C)C)c(O)cc1C`, the GI50 was 2.89 µM in the test with ACHN renal; 2.49 µM in the test on HOP-92 NSCLC; 1.95 µM with K-562 leukemia; 1.97 µM in the test on LOX IMVI melanoma; 1.98 µM in the test with MDA-MB-435; 1.93 µM with OVCAR-5 ovarian. The GI50 with SN12C renal is 2.91 µM; in the test on UO-31 renal it was 2.07 µM. For the same compound, the TGI in the test with ACHN renal was 10 µM; with HOP-92 NSCLC, 6.17 µM; with K-562 leukemia it was 5.4 µM; in the test on LOX IMVI melanoma it was 3.64 µM; in the test with MDA-MB-435 it was 4.14 µM; with OVCAR-5 ovarian, 4 µM. Further, the TGI with SN12C renal is greater than 100 µM; in the test with UO-31 renal it was 8.25 µM.
As to `Clc1ccccc1/C=C/c1cscn1`, the TGI in the test on ACHN renal, in the test on K-562 leukemia, with LOX IMVI melanoma, with LXFL 529 NSCLC, in the test on M19-MEL melanoma and in the test with OVCAR-5 ovarian was greater than 100 µM in each case. The TGI in the test on SN12C renal and with UO-31 renal was greater than 100 µM throughout.
Consider `O=C(O)Cc1cc(O)c(CC(=O)O)cc1O`, for which the TGI with 786-0 renal, with ACHN renal, in the test on HOP-92 NSCLC, with K-562 leukemia, in the test on LOX IMVI melanoma and in the test with MDA-MB-435 was greater than 100 µM each time. In addition, the TGI in the test with OVCAR-5 ovarian, with SN12C renal and in the test with UO-31 renal was greater than 100 µM throughout.
For `CCOC(=O)CN=C1NNS(=O)(=O)c2ccccc21`, the TGI in the test on 786-0 renal, with ACHN renal, in the test with HOP-92 NSCLC, in the test with K-562 leukemia, in the test with LOX IMVI melanoma and in the test on MDA-MB-435 was greater than 100 µM each time. In addition, the TGI in the test with OVCAR-5 ovarian, in the test with SN12C renal and in the test on UO-31 renal was greater than 100 µM each time.
For `COc1ccc(C2C3=C(Nc4ncnn42)c2ccccc2OC3c2ccccc2)cc1` (stereo not drawn), the TGI was greater than 100 µM in the test on 786-0 renal; greater than 100 µM with ACHN renal; greater than 100 µM with K-562 leukemia; greater than 100 µM in the test on LOX IMVI melanoma; 23.7 µM in the test with MDA-MB-435; greater than 100 µM with OVCAR-5 ovarian. The TGI in the test with SN12C renal and in the test with UO-31 renal was greater than 100 µM each time.
On to `CCOC(=O)C(O)(NC(=O)c1ccc(F)cc1)C(F)(F)F` (stereo not drawn), for which the TGI with ACHN renal, with HOP-92 NSCLC, with K-562 leukemia, in the test with LOX IMVI melanoma, in the test with MDA-MB-435 and in the test on OVCAR-5 ovarian was greater than 100 µM each time. The TGI in the test with SN12C renal and with UO-31 renal was greater than 100 µM each time.
Consider `Cn1c(=O)c2[nH]c(CCCCC(=O)O)nc2n(C)c1=O`, for which the TGI with 786-0 renal, with ACHN renal, with HOP-92 NSCLC, with LOX IMVI melanoma, in the test on MDA-MB-435 and in the test on OVCAR-5 ovarian was greater than 100 µM in each case. The TGI with SN12C renal and in the test on UO-31 renal was greater than 100 µM throughout.
Consider `N#Cc1c(Cl)c2cc([N+](=O)[O-])ccc2n2c1nc1ccccc12`, for which the TGI in the test on ACHN renal was 13.6 µM; in the test with K-562 leukemia, greater than 36.7 µM; with LOX IMVI melanoma, 3.05 µM; in the test on MDA-MB-435, 4.65 µM; with OVCAR-5 ovarian, 16.5 µM; in the test with SN12C renal, greater than 100 µM. The TGI in the test with UO-31 renal worked out at 6.82 µM.
Regarding `CN(/N=C/c1ccc(OCc2cccc(COc3ccc(C=O)cc3)n2)cc1)c1cnn(-c2ccc(Cl)cc2Cl)c(=O)c1Cl`, the TGI with 786-0 renal, in the test on ACHN renal, in the test on K-562 leukemia, with LOX IMVI melanoma, in the test with MDA-MB-435 and in the test on OVCAR-5 ovarian was greater than 100 µM in each case. Besides, the TGI with SN12C renal and with UO-31 renal was greater than 100 µM throughout.
For `O=C1NN(C2=NNC3(C(=O)N2)c2ccccc2-c2ccccc23)C(c2ccccc2)=N/C1=C/c1ccc(O)cc1`, the GI50 is 41.7 µg/mL in the test with ACHN renal; 35.8 µg/mL in the test with K-562 leukemia; 32.2 µg/mL with LOX IMVI melanoma; 69.9 µg/mL with MDA-MB-435; greater than 150 µg/mL in the test on OVCAR-5 ovarian; 74.2 µg/mL in the test with SN12C renal. For the same compound, in the test on UO-31 renal, the GI50 was 48.9 µg/mL. The TGI in the test with ACHN renal is greater than 150 µg/mL; in the test with K-562 leukemia, greater than 150 µg/mL; in the test with LOX IMVI melanoma, 71.3 µg/mL; in the test on MDA-MB-435, greater than 150 µg/mL; with OVCAR-5 ovarian, greater than 150 µg/mL; with SN12C renal, greater than 150 µg/mL. The compound also returned a TGI in the test on UO-31 renal greater than 150 µg/mL.
As for `O=S1(=O)N(CCNc2nccc(-c3c(-c4cccc(O)c4)nc4sccn34)n2)CCN1Cc1ccccc1`, the GI50 in the test with ACHN renal is 3.83 µM; in the test on HOP-92 NSCLC it was 12.9 µM; in the test with K-562 leukemia it was 3.44 µM; in the test with LOX IMVI melanoma, 2.57 µM; with MDA-MB-435, 1.23 µM; in the test on OVCAR-5 ovarian it was 29.8 µM. Moreover, the figures for the GI50 in the test on SN12C renal and in the test on UO-31 renal were 9.5 µM and 3.01 µM, respectively. For the same compound, the TGI in the test with ACHN renal was 48.2 µM; in the test on HOP-92 NSCLC it was greater than 50 µM; in the test on K-562 leukemia it was greater than 50 µM; with LOX IMVI melanoma, 16.2 µM; in the test with MDA-MB-435 it was greater than 50 µM; with OVCAR-5 ovarian it was greater than 50 µM. For the same compound, the TGI in the test on SN12C renal is greater than 50 µM; in the test with UO-31 renal, 39.3 µM.
On to `Cc1nc2ccccc2n1C(=O)c1c(F)c(F)c(F)c(F)c1F`, for which the TGI with ACHN renal was 60.7 µM; in the test with HOP-92 NSCLC, 27.9 µM; with K-562 leukemia, greater than 100 µM; with LOX IMVI melanoma it was 25.1 µM; with MDA-MB-435 it was 20 µM; in the test on OVCAR-5 ovarian, 40.8 µM. Also, the values for the TGI in the test on SN12C renal and with UO-31 renal were 30.6 µM and 33.9 µM, respectively.
As to `O=c1c2cc(S(=O)(=O)O)ccc2nc(COc2ccc(Oc3ccc(Cl)cc3Cl)cc2)n1-c1ccc(Cl)cc1Oc1c(Cl)cccc1Cl`, the TGI in the test with 786-0 renal was 64.6 µM; with ACHN renal, 68.5 µM; in the test on HOP-92 NSCLC, 47.1 µM; with K-562 leukemia, greater than 100 µM; in the test on LOX IMVI melanoma it was 32.2 µM; with MDA-MB-435, 66.5 µM. The results for the TGI in the test with OVCAR-5 ovarian, in the test with SN12C renal and in the test with UO-31 renal were 60.6 µM, 99.4 µM and 37 µM, respectively.
In the case of `C=CC1(C)CCC2=C(CCC3C(C)(C(=O)OC)CCCC23C)C1=O` (stereo not drawn), the TGI was 31.9 µM in the test on ACHN renal; greater than 100 µM in the test on K-562 leukemia; 40.3 µM in the test with KM20L2 colon; 34.3 µM with LOX IMVI melanoma; 36.4 µM in the test on LXFL 529 NSCLC; 36 µM with M19-MEL melanoma. The TGI in the test with OVCAR-5 ovarian turned out to be 29.5 µM; in the test on SN12C renal, 33 µM; in the test with UO-31 renal it was 42.8 µM.
Turning to `COc1cc(O)c2c(c1)OCC(Cc1ccc(O)cc1)C2=O` (stereo not drawn), the TGI with 786-0 renal, with ACHN renal, in the test with HOP-92 NSCLC, with K-562 leukemia, with LOX IMVI melanoma and with MDA-MB-435 was greater than 100 µM throughout. Moreover, the TGI with OVCAR-5 ovarian, with SN12C renal and in the test on UO-31 renal was greater than 100 µM throughout.
In the case of `Cc1ccc2c(c1)C1(C)OC(C=CC1=O)O2` (stereo not drawn), the TGI came out at 0.822 µM with 786-0 renal; 1.73 µM in the test on ACHN renal; 1.48 µM in the test with HOP-92 NSCLC; 0.902 µM with K-562 leukemia; 1.31 µM with LOX IMVI melanoma; 0.317 µM in the test with MDA-MB-435. Moreover, the TGI with OVCAR-5 ovarian was determined as 4.46 µM; in the test with SN12C renal it was 0.862 µM; with UO-31 renal, 2.36 µM.

The values are drawn from PubChem BioAssay (NCI).
